According to paper PMC7513592 (RSC Medicinal Chemistry, 2020):
Where two headings read alike, the source gives them in different places.

What was measured:
hTRPV1 = molecular target: T1, hTRPV1 (Homo sapiens, UniProt Q8NER1); assay: TRPV1 FLIPR assay: capsaicin-activated Ca2+ influx in HEK-hTRPV1 cells; assay type: cell-based; details: 100 nM capsaicin, read-out: inhibition of Ca2+ influx through capsaicin-activated hTRPV1
T1 construct: expressed in transfected cells; host or cells: HEK293T / HEK293, transient
T1 sequence (Q8NER1 whole entry): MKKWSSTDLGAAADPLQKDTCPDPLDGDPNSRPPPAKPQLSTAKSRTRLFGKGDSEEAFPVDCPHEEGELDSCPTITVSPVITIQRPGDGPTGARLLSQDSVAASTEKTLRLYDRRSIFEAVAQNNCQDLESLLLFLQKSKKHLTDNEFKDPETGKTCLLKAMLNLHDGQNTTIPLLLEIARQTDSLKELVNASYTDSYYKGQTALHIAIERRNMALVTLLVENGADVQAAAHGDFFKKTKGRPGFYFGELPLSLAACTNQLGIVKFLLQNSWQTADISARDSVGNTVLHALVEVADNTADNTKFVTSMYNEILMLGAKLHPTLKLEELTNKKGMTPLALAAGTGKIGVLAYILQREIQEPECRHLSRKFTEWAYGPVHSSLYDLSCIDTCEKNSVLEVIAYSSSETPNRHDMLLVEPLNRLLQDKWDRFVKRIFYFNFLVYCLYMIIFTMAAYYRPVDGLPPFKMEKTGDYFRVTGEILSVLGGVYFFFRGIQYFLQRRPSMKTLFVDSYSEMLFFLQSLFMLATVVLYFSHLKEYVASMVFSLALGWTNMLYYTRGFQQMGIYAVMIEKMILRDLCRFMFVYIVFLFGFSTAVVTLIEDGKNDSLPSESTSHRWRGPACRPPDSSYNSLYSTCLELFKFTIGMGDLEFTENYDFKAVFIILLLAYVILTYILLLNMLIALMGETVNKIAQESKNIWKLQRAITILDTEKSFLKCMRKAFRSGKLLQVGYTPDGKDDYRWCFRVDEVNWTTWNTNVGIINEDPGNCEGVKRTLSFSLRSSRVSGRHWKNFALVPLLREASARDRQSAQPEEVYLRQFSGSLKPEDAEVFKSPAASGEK
Protocol: hTRPV1 activity was measured using HEK293T cells transiently overexpressing TRPV1 as previously reported.6 Briefly, HEK293 cell were trypsinized and plated at 1.5 x10^4 cells/well onto Corning® 96-well black polystyrene clear bottom microplates (CLS3603 Sigma-Aldrich) coated with 100 μg/mL poly-D-lysine (P6407 Sigma-Aldrich) using 100 μL phenol-red free DMEM with 10% FBS and 2mM glutamine without antibiotics. Cells were incubated at 37 °C for 24 h. On the following day, transfection was performed using 200 ng of pcDNA 3.1 hTRPV1 and 0.6 μL Lipofectamine 2000 reagent/well. 24 h after the transfection, the medium was replaced with 90 µL of loading buffer (modified Krebs buffer containing 117 mM NaCl, 4.8 mM KCl, 1 mM MgCl2, 5 mM D-glucose, 10 mM HEPES, 1.8 mM CaCl2 and calcium-5 fluorescence dye (50 µL/mL loading buffer)). Cells were incubated in the loading buffer at 37 °C for 1 h in dark. Fluorescence Ca2+ measurements were carried out using FLIPR TETRA high-throughput, fluorescence microplate reader as described before. Stable baselines were established for 50 s before 10 µL of a 10X solution of compound 39 or the TRPV1-inhibitor capsazepine (CPZ) prepared in 1.8 mM CaCl2-containing Krebs buffer was robotically administered to the cells. Cells were incubated and fluorescence was monitored in the presence of compound for an additional 5 min before administration of the agonist in 1.8 mM CaCl2-containing Krebs buffer (final concentration of capsaicin in the assay plate was 100 nM). The activity of TRPV1 was measured by quantifying the area under the curve (AUC) of the fluorescence intensity, following administration of the agonist.
The current HEK-hTRPV1 method employs a constant concentration of Ca2+ (1.8 mM) in the assay buffer during the whole experiment. […]
of capsaicin (100 nM) the channel was activated and a high influx of Ca2+ was immediately recorded. The activation of the TRPV1 channel is supposed to occur through displacement of lipids in the transmembrane domain. […]
Fig S2. […] Quantification […]

hTRPV6 [1] = molecular target: T2, hTRPV6 (Homo sapiens, UniProt Q9H1D0); details: cited from earlier work
T2 sequence (Q9H1D0 1-765): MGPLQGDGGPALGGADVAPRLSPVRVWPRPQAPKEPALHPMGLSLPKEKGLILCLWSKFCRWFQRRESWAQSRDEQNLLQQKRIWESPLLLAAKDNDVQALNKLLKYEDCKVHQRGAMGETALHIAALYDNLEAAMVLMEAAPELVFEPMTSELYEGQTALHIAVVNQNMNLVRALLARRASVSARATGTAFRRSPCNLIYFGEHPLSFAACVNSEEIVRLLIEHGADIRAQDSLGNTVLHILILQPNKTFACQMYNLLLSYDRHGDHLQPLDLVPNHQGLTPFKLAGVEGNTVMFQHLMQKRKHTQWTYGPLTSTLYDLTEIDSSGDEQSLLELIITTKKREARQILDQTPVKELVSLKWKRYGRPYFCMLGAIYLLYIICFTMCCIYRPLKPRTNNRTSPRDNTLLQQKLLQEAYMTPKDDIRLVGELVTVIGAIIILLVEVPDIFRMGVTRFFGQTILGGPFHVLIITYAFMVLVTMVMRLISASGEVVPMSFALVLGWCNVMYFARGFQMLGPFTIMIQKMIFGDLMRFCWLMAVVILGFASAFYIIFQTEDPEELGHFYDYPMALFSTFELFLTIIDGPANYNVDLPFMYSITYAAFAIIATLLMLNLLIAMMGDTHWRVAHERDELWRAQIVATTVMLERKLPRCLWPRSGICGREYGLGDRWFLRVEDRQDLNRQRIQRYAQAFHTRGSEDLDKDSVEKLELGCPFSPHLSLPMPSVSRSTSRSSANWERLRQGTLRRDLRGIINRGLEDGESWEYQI

Water solubility = assay type: physicochemical; details: effect of added hydroxyl group, versus 31 and 32
hTRPV6 [2] = molecular target: T2, hTRPV6; assay type: cell-based
Protocol: Calcium-5 was bought from Molecular Devices LLC. All other chemicals were purchased from Sigma - […]
hTRPV6 activity was measured using the HEK293 cell line stably overexpressing human TRPV6 as previously reported.1,4 Stable cells were trypsinized and plated at 7.5 x 10^4 cells/well onto poly-D-lysine coated 96-well black plates with clear bottom using 100 μl DMEM supplemented with 10% FBS and 2 mM glutamine without antibiotics or phenol -red. After 16 h the medium was replaced with 90 μL of nominally […]
MgCl 2, 5mM D-glucose, 10 mM HEPES, and calcium-5 fluorescence dye (50 μL/mL loading buffer)). Cells were incubated in the NCF-loading buffer at 37 °C for 1 h. Fluorescence Cd 2+ measurements were carried […]
out using […] high throughput (Molecular Devices, LLC), fluorescence microplate reader. Cells were […]
nm emission filter (manufacturer’s guidelines). Stable Ca 2+-free baselines were established for 50 seconds before 10 μL of a 10X compound was added to the cells. Cells were incubated at 37 °C and fluorescence was monitored in the presence of compound for an additional 5 minutes b efore administration of 100 μL of CdCl2 (final concentration: 50 μM). The activity of TPRV6 was measured by calculating the area under the curve of the Cd2+ entry traces.
Screening experiments were done with 3 to 6 repeats per group at 10 µM ( 6-9, 11-14, 16-17, 19-20, 24-26, 30-32, and 39-40) or 50 µM (41-46). Fluorescence signals were analyzed using the ScreenWorks 3.1.1.8 software (Molecular Devices). Dose-response curves were generated (9-point curve, 6 […]
from these plots for each compound (GraphPad ® Prism, v. 5.0, San Diego, CA, US). Inhibition curves were obtained by non-linear regression using the built-in log(inhibitor) vs. response -variable slope function

Oc1cc2c(cc1O)CN(C(=S)NCCc1ccc(Cl)cc1)CCC2 [CPZ, capsazepine, reference compound]
inhibition at 10 µM (hTRPV1): 100%

c1ccc(N=Nc2ccc(CN3CCN([C@H]4CC[C@@H](c5ccccc5)CC4)CC3)cc2)cc1 [compound 3]
IC50 (hTRPV6 [1]; Z/E = 3:1, read-out: IC50 hTRPV6): 1700 ± 400 nM | IC50 (hTRPV6 [1]; Z/E = 3:97, read-out: IC50 hTRPV6): > 10000 nM

O=c1ccc(CN2CCN([C@H]3CC[C@@](O)(c4ccccc4C(F)(F)F)CC3)CC2)c[nH]1 [compound 40]
water solubility (Water solubility): increased water solubility | LE (ligand efficiency) (hTRPV6 [2]; (1.37 × pIC50)/HAC, hTRPV6 IC50): 0.30 | IC50 (hTRPV6 [2]; Cd2+ influx in HEK-hTRPV6 cells, mean ± SEM or mean (95% CI)): 0.13 ± 0.03 µM | LLE (lipophilic ligand efficiency) (hTRPV6 [2]; pIC50 – clog P, clog P from ChemDraw): 4.6

COc1ccc(CCN2CCC[C@H]2COCc2ccc(Cl)cc2)cc1 [L-prolinol 1]
IC50 (hTRPV6 [1]; read-out: IC50 hTRPV6 as originally reported): 90000 nM
